Test results published in patent US6201116A, “Halide indicators” (The Regents of the University of California, priority 1999, dated 2001).

Columns and labels:
cells [1] = assay: Response of intracellular fluorescence to osmotically-induced changes in cell volume; format: cell-based
Protocol: (§1) Fluorescence microscopy. Fluorescence microscopy measurements were performed as described previously (Chao et al., 1989). Briefly, coverglasses were mounted in a 0.5 ml perfusion chamber in which the cell-free glass surface made contact with an oil immersion objective (Nikon ×40 magnification, numerical aperture[NA] 1.3). Cell fluorescence was excited at 365±10 nm (SPQ) or 420 nm±10 nm (LZQ and LMQ). Emitted fluorescence was detected by a photomultiplier in a Nikon inverted epifluorescence microscope using a 410 nm dichroic mirror and 420 nm barrier filter (SPQ) or a 455 nm dichroic mirror and 500 nm barrier filter (LZQ). For cells colabeled with SPQ and LZQ, SPQ fluorescence was excited at 365±10 nm and detected using a 410 nm dichroic mirror and 455±30 nm interference filter. Confocal fluorescence micrographs were obtained using a Nipkow wheel confocal microscope and cooled CCD camera detector using a ×60 oil immersion objective (Nikon, NA 1.4). LZQ-labeled cells were viewed using a fluorescein filter set (excitation 480±15 nm, emission 520±20 nm).
The similar LZQ lifetime in cells and water predicts that LZQ fluorescence should be relatively insensitive to cell volume in the absence of I^-. […] When cells were exposed to hypoosmotic medium (225 mOsm), SPQ fluorescence increased by 15±2%, whereas LZQ fluorescence increased by only 4±1%.

CFTR = assay: I^-/NO3^- exchange in forskolin-stimulated CFTR-expressing cells; format: cell-based
Protocol: Transport measurements. Cells were labeled with LZQ or SPQ by hypotonic shock (loading buffer/water 1:1 containing 2 mM LZQ or 7.5 mM SPQ) for 5 min at room temperature or by overnight incubation with indicators in the cell culture medium. Extracellular indicator was removed by washing just prior to measurements. For fluorescence microscopy, glass coverslips were then mounted in a perfusion chamber (flow ~2 ml/min) in which solutions were exchanged using a 4-way valve. For microplate reader measurements, cells in 96-well plates were bathed in […] of the `1st buffer` (see Table 3) and […] of the Cl^- -containing, I^- -free solution was injected into the well to drive Cl^- /I^- exchange (protocol 1). For stimulation of CFTR using protocol 2, […] of a 1:8 mixture of the 1st buffer and the 2nd buffer containing […] forskolin, 2 mM CPT-cAMP and […] IBMX was added.
For determination of the absolute I^- transport rates, the time course of intracellular [I^- ] was computed from the time course of SPQ or LZQ fluorescence using the modified Stem-Volmer equation [I^- ]={([Fo -Fb ]/[F-Fb ])-1}/KI, where Fo is fluorescence intensity in the absence of I^-, Fb is background fluorescence of unlabeled cells, and KI the intracellular quenching constant for I^- (see Results). I^- transport rates were calculated from the slope of a linear regression of the first 10 time points after changing perfusate composition.
The utility of LZQ for functional measurement of CFTR expression was tested. […] A comparison of data obtained for cells loaded with LZQ and SPQ initially loaded with I^-, followed by replacement of I^- with NO3^- in the absence of forskolin, followed by addition of forskolin was also performed. The initial rates of forskolin-stimulated I^- efflux (SPQ: 0.09±0.02 mM/s; LZQ: 0.08±0.01 mM/s) were similar. Measurements of Cl^- /NO3^- exchange were also carried out by measuring SPQ fluorescence using cells labeled with SPQ alone vs. cells colabeled with SPQ and LZQ.

[2] = system: 3T3 fibroblasts expressing CFTR; assay: Intracellular sensitivity to I^-; format: cell-based, mouse
Protocol: as §1, with “LZQ-labeled cells were viewed using a fluorescein filter set (excitation 480±15 nm, emission 520±20 nm).” left out
A time course of LZQ fluorescence during perfusion with physiological saline at 23° C. was generated. A small group of 20-30 cells was illuminated continuously and fluorescence was detected by a photomultiplier using an ×40, 1.3 NA objective. Cellular fluorescence decreased slowly at a rate of 2.5% per hour. […] Background fluorescence (in non-labeled cells) was generally <5% of the fluorescence of LZQ-labeled cells. […]

cells [3] = assay: Time-resolved anisotropy in cells; format: cell-based
Protocol: Time resolved fluorescence measurements. Fluorescence lifetime and anisotropy decay measurements were carried out in the frequency domain by cuvette fluorimetry using a Fourier transform fluorimeter (48000 MHF, SLM Instruments, Urbana, Ill.) or by fluorescence microscopy using epifluorescence microscope optics in place of the cuvette compartment (Verkman et al., 1991). For microscopy measurements, impulse-modulated vertically polarized light (442 nm, He--Cd laser 35 mwatts) was reflected onto the sample by a 510 nm dichroic mirror and objective lens; emitted fluorescence was filtered by a 515 nm barrier filter and passed through a rotatable analyzing calcite polarizer. In some experiments, a biconcave lens was introduced just in front of the dichroic mirror to diverge beam diameter in the focal plane to […].
Analysis of lifetime and time-resolved anisotropy was performed by a comparative approach. Generally six pairs of measurements (each acquisition 8 s) were obtained, comparing sample and reference (fluorescein in 0.1 N NaOH, lifetime 4.0 ns) for measurement of lifetime, and parallel and perpendicular orientations of the emission polarizer for measurement of anisotropy decay. The phase-modulation data consisted of phase angles and modulation ratios at 40 discrete, equally spaced modulation frequencies (5-200 MHz). The analyzing polarizer was positioned at the magic angle for lifetime measurements. Additional details of the data acquisition and analysis routines were described previously (Verkman et al., 1991). Median phase and modulation values for paired data were analyzed by nonlinear least-squares for determination of lifetimes and rotational correlation times.
Time-resolved anisotropy was measured to quantify intracellular LZQ binding. In water, LZQ rotated freely with a single-component rotational correlation time of 121±3 ps (n=3). For LZQ in cells, a plot of differential phase and modulation amplitude ratio indicated a two-component anisotropy decay model with a major component (fractional amplitude 0.90-0.94) of 144±10 ps, similar to that in water.

SMILES: [O-]c1nc2c(N[C@@H]3O[C@H](CO)[C@@H](O)[C@H]3O)ncnc2[n+]2ccccc12 [I, 4-(β-D-ribofuranosylamino)-pyrido [2,1-h] pteridin-11-ium-5-olate]
- fluorescence increase upon exposure to hypoosmotic medium (cells [1]; 225 mOsm): 4±1%
- fluorescence change upon exposure to hyperosmotic medium (cells [1]; 600 mOsm, absence of I^-): 5±1%
- initial rate of forskolin-stimulated I^- efflux (CFTR; I^- replaced by NO3^- without forskolin, then forskolin added): 0.08 ± 0.01 mM/s
- computed I^- efflux rate (CFTR; forskolin-stimulated CFTR-expressing cells, I^-/NO3^- exchange): 0.09 ± 0.03 mM/s
- computed I^- influx rate (CFTR; forskolin-stimulated CFTR-expressing cells, I^-/NO3^- exchange, S.E., n=3): 0.25 ± 0.01 mM/s
- intracellular Stern-Volmer constant, quenching by I^- ([2]; high [K^+] and ionophores): 26 M⁻¹
- cellular fluorescence response to I^- ([2]; repeated addition and removal of 50 mM I^-): large, reversible changes in fluorescence
- binding to intracellular components (cells [3]): negligible binding
- fractional amplitude of major component (cells [3]; in cells): 0.90-0.94
- rotational correlation time, major component (cells [3]; in cells, two-component model): 144±10 ps
